Consider four substances from patent US20160030318A1, “HIGHLY BIOAVAILABLE Na-ACYL ACIDIC AMINO ACID ESTER SALT COMPOSITONS WITH ZWITTERIONIC SURFACTANTS” (JOHNSON & JOHNSON CONSUMER INC., priority 2014, published 2016).

Data set [1] in a line: Disc Retention Assay (DRA) for LAE bioavailability. Type of data set: in vitro ADME. An excerpt:
Procedure for Determining Bioavailability
Lanzalaco. Availability Testing of Cetylpyridinium Chloride Mouthrinses. […] Mar. 19-23, 1997.
Cellulose Filter disks (Schleicher and Schuell #740-E)
24-well culture plate (Corning 3526)
Vacuum pulled filtration system
0.1% Acid Fuschin dye solution (w/v)
20% p-toluenesulfonic acid solution (w/v)
Spectrophotometer (Molecular Devices—SpectraMAX 190)
10. […] Vortexed solution.
12. Read absorbance spectrophotometrically at 545 nm.

The conditions of data set [2]: described in JP 57-165305; cited from earlier work.
Data set [3] relates to Escherichia, Pseudomonas aeruginosa, Proteus vulgarus, Staphylococcus aureus, Bacillus substilis, Candida albicans and Aspergillus niger. The settings on record: disclosed in GB 1352420; cited from earlier work.

Consider Cocamidopropyl Betaine, for which, in data set [1], the “BA ± SE with LAE” value came to 86.1 ± 2.8%, the “BA ± SE without LAE” value was found to be 27.6 ± 15.0% and the “Impact of surfactant on LAE bioavailability” value is given as “did not negatively impact bioavailability”.

For the substance “N^α-cocoyl-L-arginine ethyl ester pyrrolidone carboxylate”, the bacteriocidal activity result in data set [2] was “weak bacteriocidal activity”. For the same substance, the bactericidal activity result in data set [3] is listed as “bactericidal activity”. On to “N^α-cocoyl-L-arginine methyl ester pyrrolidone carboxylate”, for which the bactericidal activity result in data set [3] is recorded as “bactericidal activity”.

In the case of Poloxamer 407, the “BA ± SE with LAE” value in data set [1] is given as 35.9 ± 5.2%.
